The test system of assay [1] is 5-HETE biosynthesized by glycogen-stimulated polymorphonuclear leucocytes (PMNs). Description: Hydroxyacid Profile Assay (HPA): inhibition of 5-HETE synthesis in glycogen-elicited rabbit PMNs. It counts as cell-based. The conditions noted are these: Oryctolagus cuniculus, Leucocyte; for inhibition at 100 µM: 5-HETE synthesis, read-out: Percent Inhibition (100 μM). The protocol: As previously noted 5-HETE biosynthesis serves as a marker for arachidonic acid metabolism via the 5-lipoxygenase pathway which produces (poly)hydroxyeicosatetraenoic acids and the potent bronchoconstrictor and vasoactive leukotrienes LTC4, LTD4 and LTE4.
Buffer A (8.70 g NaCl; 0.27 g KCl; 0.42 g Na2 HPO4; 0.76 g KH2 PO4; and 1.00 g dextrose per liter H2 O; pH 7.0) (0.325 ml) is introduced into each of a battery of screwtop culture tubes. Then, a solution of a compound (0.100 ml) to be assayed is dispensed into individual tubes. Assays are performed in duplicate at 100 μM and 10 μM concentrations. Control tubes receive Buffer A (0 100 ml) in lieu of compound. Next, rabbit PMNs (2×10^7 cells/tube; 4×10^7cells/ml) (0.500 ml) are added to each tube. The rabbit PMN's used are elicited with glycogen and made into a preparation substantially as described by F. Hirata. et al (1979) Proc. Natl. Acad. Sci. USA, 76, 2640-2643. The tubes are vortexed and preincubated in a shaking 37° C. water bath for 15 minutes.
Thereafter, the tubes are removed from the water bath and calcium ionophore solution (400 μg/ml A-23187; Sigma Chemical Co., St. Louis, Mo.) (0.025 ml), ^14 C-arachidonic acid (0.25 μCi in 0.025 ethanol; New England Nuclear Products, Boston, Mass.) (0.025 ml) and calcium chloride solution (CaCl2.2H2 O ); 105.8 mg/10 […]) (0.025 ml) are added in that order. The tubes are vortexed and returned to the water bath for 30 minutes. The reaction is then terminated by the addition of HCl (0.8N, 0.025 ml).
Extraction and concentration of ^14 C-labeled 5-HETE is performed as follows. First, solution containing 2 parts ethyl acetate, 3 parts CH2 Cl2 and 0.01 ml unlabeled arachidonic acid is added (5.01 ml) to each tube. The tubes are capped and briefly vortexed. The contents of each tube is poured into a polypropylene column fitted with a porous polyethylene disc and Whatman phase separation filter paper. The organic phase is collected by gravity filtration into a conical centrifuge tube, While the aqueous phase is retained in the column by the phase separation paper. Each culture tube is rinsed once with the EtOAc:CH2 Cl2 solution (1.0 ml) and the wash added to the column. The organic phase is concentrated to (0.5 ml) using a Savant Speed Vac concentrator (Savant Instruments, Inc., Hicksville, N.Y.).
After concentration of the organic phase, the tubes are vortexed and stored covered on ice. An aliquot (0.01 ml) is then removed for liquid scintillation counting in a Beckman LS7500 Liquid Scintillation Counter (Beckman Instruments Corp., Fullerton, Calif.). Based on the count, the number of μl containing 1×10^5 cpm is calculated. This volume is applied to a silica gel covered glass plate in a 10 mm streak. The remaining fluid in the tube is measured via syringe and noted.
The TLC plate is placed in a chromatography chamber containing the following solvent system: CHCl3 :MeOH:HOAc:H2 O (v/v;90: 9:1:0.65). The plate is then air dried and counted on a Berthold Linear TLC Analyzer (Berthold Instruments, Inc., Pittsburgh, Pa.) for 30 minutes per lane if a dose response curve had been run, or for 5 min per lane if drug screening had been done. The integrated area of the 5-HETE band for each compound is converted to percent of control and analyzed. The percent inhibition at 100 μM compound concentration and the concentration (μM) which produces a 50% inhibition of 5-HETE synthesis (IC50), are determined for those compounds described in Examples 1-36, and are reported in Table 1 .

For assay [2], the system named is guinea pig ileal strips. Description: Modified Schultz-Dale Assay: inhibition of antigen-induced anaphylactic contraction of passively sensitized ileal strips. In kind it is cell-based. The conditions noted are these: Cavia porcellus; for IC50: value in parentheses. The method, then: In the classic Schultz-Dale assay, guinea pigs are sensitized with a known immunogen or passively sensitized with guinea pig antiserum to the immunogen, strips of ilea are recovered, and the extent of their contraction in response to a challenge exposure to the same antigen is observed as a measure of anaphylactic response. The experiments described here follow this same procedure while exposing the ileal strips to test compound before exposure to antigen challenge (preincubation) and, in some strips, also after antigen challenge (postincubation).
The male Hartley strain guinea pigs (450-650 g) whose ilea are used in this Schultz-Dale assay are passively sensitized with IgE antiovalbumin antiserum as follows. The antiserum is developed in another group of similar guinea pigs as described in Graziano, et al., J. Immunol. 127:1067-1070 (1981) and pooled. The test animals are then each passively sensitized by subcutaneous injection of the pooled antiserum (1 ml).
About 2-7 days after sensitization, the guinea pigs are sacrificed and the terminal ilea are removed. They are cut into strips (6 cm) and positioned in tissue baths (5 ml) of Tyrode's solution with atropine (1 μg/ml) at 37° C. One end of each strip is fixed to an immobile post and the other movably mounted to a Grass Ft. 0.03 linear force displacement transducer and a Grass Model 7 polygraph. The tension is set (at 1 gram) and the tissue is allowed to equilibrate (10 minutes). Tissue viability is tested by establishing a consistent response to histamine (0.5 μg/ml). After several histamine-induced contractions, mepyramine (1 μg/ml) is added to inhibit any contractions due to the anaphylactic release of endogenous histamine.
A minimum of 3 animals are used for each compound tested and, of the 6 strips from each animal, 2 strips are incubated (preincubation) with a test compound (final concentration 75 μM), 2 with an appropriate reference standard (BW-755C at 75 μM) and 2 with saline solution (control) for a predetermined period (5 minutes). After this initial incubation period, ovalbumin (100 μg/ml) is added to each bath and the resulting anaphylactic contraction measured. The data are recorded as of tension produced by the tissue in excess of the 1 gram tension that was initially set. At the peak of the contraction, a dose of the same test compound (75 μM) is added (postincubation) to one control strip and reference standard (FPL-55712 at 1.9 μM). The strips are monitored (1 minute) and any effect on the established contraction is recorded as described above.
Two types of data are derived from the above protocol. First, pre-antigen inhibition (prechallenge) is expressed as the percent inhibition in each of the strips preincubated with test compound measured against the averaged contractions of the two control strips. Prechallenge inhibition by the reference standard is also determined in each experiment as a positive control. The reference used consistently gives 60-80% inhibition. Second, post-antigen inhibition (postchallenge) is determined by measuring the decrease in anaphylactic contraction of a control strip produced by adding either a test compound or standard at the peak of the contraction. The reference used consistently gives 70-90% inhibition. The data in each experiment, therefore, consists of 2 prechallenge and 1 postchallenge value for both test compound and standard.

Setting [3] is: added at peak of contraction after antigen, read-out: Postchallenge mean percent inhibition.
Setting [4] is: preincubation before ovalbumin antigen, read-out: Prechallenge mean percent inhibition.
[5] abbreviates: added at peak of contraction after antigen, read-out: Postchallenge IC50.
Setting [6] is: preincubation before ovalbumin antigen, read-out: Prechallenge IC50.

The structures appear in SMILES notation. Read-outs that look alike come from different tables or passages of the source.

As a reminder, the inhibition is the relative decrease from the control value, in per cent. One may read the IC50 as the concentration that inhibits the measured activity by half.

As to `CCCCCCCc1ccc(C(=O)CC(C)(C)CC(=O)O)cc1` [Example 24, 4-(4-Heptylbenzoyl)-3,3-dimethylbutanoic acid], the inhibition at 100 µM in assay [1] was determined as 51%. The inhibition at 75 µM was found to be 43% in assay [2] (setting [3]) and 84% in assay [2] (setting [4]). Further, the IC50 in assay [2] (setting [5]) is 40 µM; in assay [2] (setting [6]) it was 26 µM.
On to `CCCc1c(OCC(O)COc2ccc3c(=O)cc(C(=O)O)oc3c2CCC)ccc(C(C)=O)c1O` (stereo not shown) [FPL-55712, reference compound], for which the inhibition at 1.9 µM in assay [2] (1.9 μM, positive control, added at peak of contraction, read-out: Postchallenge inhibition by the reference standard) was in the range of 70 to 90%.
As for `CCCCCc1ccc(C(=O)Cc2cccc(C(=O)O)c2)cc1` [Example 15, 3-(4-pentylphenacyl)benzoic acid], the inhibition at 100 µM in assay [1] stood at 78%. Moreover, the inhibition at 75 µM amounted to 13% in assay [2] (setting [3]) and 81% in assay [2] (setting [4]). The IC50 in assay [2] (setting [5]) is over 75 µM; in assay [2] (setting [6]), 27 µM.
Regarding `O=C(O)c1cccc(C(=O)c2ccc(C3CCCCC3)cc2)c1` [Example 35, 3-(4-Cyclohexylbenzoyl)benzoic acid], the inhibition at 100 µM in assay [1] is 63%. The figures for the inhibition at 75 µM in assay [2] (setting [3]) and in assay [2] (setting [4]) were 43% and 66%, respectively. Further, the values for the IC50 in assay [2] (setting [5]) and in assay [2] (setting [6]) were over 75 µM and 38 µM, respectively.
`CCCCOc1cc(OC)ccc1C(=O)c1cccc(C(=O)O)c1` [Example 28, 3-(2-Butoxy-4-methoxybenzoyl)benzoic acid]: the inhibition at 75 µM in assay [2] (setting [3]) stood at 35%; in assay [2] (setting [4]) it was 61%.
Take `CCCCCCCCCc1ccc(C(=O)[C@@H]2CCCC[C@H]2C(=O)O)cc1` (relative stereo) [Example 32, Trans-2-(4-n-nonylbenzoyl)cyclohexane-l-carboxylic acid]: in assay [1], the inhibition at 100 µM came to 85%. Also, the values for the inhibition at 75 µM in assay [2] (setting [3]) and in assay [2] (setting [4]) were 20% and 92%, respectively.
With `CCCCCCCc1ccc(C(=O)CCCC(=O)O)cc1` [Example 34, 4-(4-n-Heptylbenzoyl)butanoic acid], the inhibition at 100 µM in assay [1] is 76%. Moreover, the figures for the inhibition at 75 µM in assay [2] (setting [3]) and in assay [2] (setting [4]) were 39% and 79%, respectively. The IC50 in assay [2] (setting [6]) was determined as 14 µM.
With `CCCCCCCc1ccc(C(=O)Cc2cccc(C(=O)O)c2)cc1` [Example 18, 3-(4-n-Heptylphenacyl)benzoic acid], in assay [1], the inhibition at 100 µM was found to be 73%. The inhibition at 75 µM in assay [2] (setting [3]) was found to be 70%; in assay [2] (setting [4]), 97%. Also, the IC50 came out at 51 µM in assay [2] (setting [5]) and 10 µM in assay [2] (setting [6]).
For `Cc1ccc(C(=O)c2cccc(C(=O)O)c2)c(O)c1` [Example 30, 3-(2-Hydroxy-4-methylbenzoyl)benzoic acid], the inhibition at 100 µM in assay [1] came out at 47%. Further, the inhibition at 75 µM was determined as 6% in assay [2] (setting [3]) and 26% in assay [2] (setting [4]).
Regarding `CCCCCCCc1ccc(C(=O)c2cccc(C(=O)O)c2)cc1` [Example 16, 3-(4-n-heptylbenzoyl)benzoic acid], in assay [1], the inhibition at 100 µM worked out at 75%. Besides, the figures for the IC50 in assay [1] (read-out: IC50 (50% inhibition of 5-HETE synthesis)), in assay [2] (setting [5]) and in assay [2] (setting [6]) were 4 µM, 57 µM and 12 µM, respectively. Further, the inhibition at 75 µM in assay [2] (setting [3]) is 63%; in assay [2] (setting [4]), 86%.
Consider `CCCCCCc1ccc(C(=O)CCCCC(=O)O)cc1` [Example 5, 5-(4-n-Hexylbenzoyl)pentanoic acid], for which, in assay [1], the inhibition at 100 µM was 47%. The results for the inhibition at 75 µM in assay [2] (setting [3]) and in assay [2] (setting [4]) were 58% and 65%, respectively.
As to `NC1=NN(c2cccc(C(F)(F)F)c2)CC1` [BW-755C, reference compound], the inhibition at 75 µM in assay [2] (positive control, preincubation, read-out: Prechallenge inhibition by the reference standard) lay within 60 to 80%.
`COc1ccc(C(=O)c2cccc(C(=O)O)c2)c(O)c1` [Example 27, 3-(2-Hydroxy-4-methoxybenzoyl)benzoic acid]: the inhibition at 100 µM in assay [1] is 31%. In addition, the results for the inhibition at 75 µM in assay [2] (setting [3]) and in assay [2] (setting [4]) were 14% and 58%, respectively.
On to `CCCCCCOc1cc(C)ccc1C(=O)c1cccc(C(=O)O)c1` [Example 31, 3-(2-n-Hexyloxy-4-methylbenzoyl)-benzoic acid], for which the values for the inhibition at 75 µM in assay [2] (setting [3]) and in assay [2] (setting [4]) were 59% and 81%, respectively. In addition, the results for the 50% inhibitory concentration (IC50) in assay [2] (setting [5]) and in assay [2] (setting [6]) were over 75 µM and 44 µM, respectively.
Regarding `CCCCOc1ccc(C(=O)CCCCC(=O)O)cc1` [Example 33, 5-(4-n-Butoxybenzoyl)pentanoic acid], the inhibition at 100 µM in assay [1] is 49%. The inhibition at 75 µM in assay [2] (setting [3]) is 29%; in assay [2] (setting [4]), 63%.
As to `CCCCCCOc1ccccc1C(=O)CCCCC(=O)O` [Example 13, 5-(2-n-Hexyloxybenzoyl)pentanoic acid], in assay [1], the inhibition at 100 µM was determined as 64%. Moreover, the inhibition at 75 µM in assay [2] (setting [3]) turned out to be 43%; in assay [2] (setting [4]) it was 87%. The IC50 in assay [2] (setting [5]) was 45 µM; in assay [2] (setting [6]), 15 µM.
As for `CCCCOc1ccc(C(=O)c2cccc(C(=O)O)c2)c(O)c1` [Example 26, 3-(4-Butoxy-2-hydroxybenzoyl)benzoic acid], the figures for the inhibition at 75 µM in assay [2] (setting [3]) and in assay [2] (setting [4]) were 59% and 85%, respectively.
Take `CCCCCCCc1ccc(C(=O)c2cccc(-c3nn[nH]n3)c2)cc1` [Example 36, 5-3-(4-n-Heptylbenzoyl)phenyl!tetrazole]: the inhibition at 75 µM in assay [2] (setting [3]) worked out at 14%; in assay [2] (setting [4]), 85%. Besides, the IC50 in assay [2] (setting [5]) was over 75 µM; in assay [2] (setting [6]) it was 7 µM.

The values are drawn from US5504244A, “Alkylarylketo acids” (Boehringer Ingelheim Pharmaceuticals, Inc., priority 1993, dated 1996).
